The text below walks through data of patent publication US20250236589A1, “THERAPEUTIC PHENETHYLAMINE COMPOSITIONS AND METHODS OF USE” (Cybin IRL Limited, priority 2022, published 2025).

Where two headings read alike, the source gives them in different places.

As a reminder, the EC50 is the midpoint of the concentration-response curve. As usually defined, the Emax is the maximal effect, on the per cent scale that the assay sets. For orientation: Ki means a dissociation constant, usually derived from enzyme kinetics or from competition with a known ligand.

Data set [1] relates to GABA (non-selective) (rat cortex). In words: Off-target screen, radioligand displacement at 10 μM. The data set is classed as binding. On the technique in general: Displacement assays read how much labelled ligand stays bound in the presence of the test substance.
A further data set concerns the target Histamine H1 (h) (Homo sapiens (Human), UniProt P35367). Described as above. It is filed as binding.
Another data set concerns the target Muscarinic M1 (h) (Homo sapiens (Human), UniProt P11229). Described as above. It is filed as binding. Conditions: antagonist radioligand.
The target of another data set is human 5-HT2B receptor (Homo sapiens (Human), UniProt P41595). As to the kind of experiment: 5-HT2B functional assay, IP1 (IPOne). The data set is classed as cell-based. The conditions noted are these: for Emax: IP1 assay, relative to 5-HT.
A further data set has as its target Galanin GAL1 (h) (Homo sapiens (Human), UniProt P47211). In words: Off-target screen, radioligand displacement at 10 μM. Conditions: read-out: binding at 10 μM.
Another data set addresses 5-HT2A receptor (Homo sapiens (Human), UniProt P28223). As to the kind of experiment: 5-HT2A functional assay, IP1 (IPOne). The data set is classed as cell-based. The conditions noted are these: for Emax: relative to 5-HT. As to the method:
After incubation, cells were lysed and fluorescence acceptor and donor were added. FRET was measured after 60 min at room temperature using a microplate reader (Envision, Perkin Elmer). TRUPATH assays followed a similar workflow, except that different reagents were used, and LiCl was not included in the samples; the protocol was based on the report by Olsen, R. H. J. et al., cited above.

In data set [2] the test system is Potassium KV channel (rat cortex). In words: Off-target screen, radioligand displacement at 10 μM. The data set is classed as binding.
The next data set has as its target 5-HT2C receptor (Homo sapiens (Human), UniProt P28335). As to the kind of experiment: 5-HT2C agonist radioligand binding ([125I]DOI). The text has this:
5-HT2 Receptor Activity. […] Drug Test Anal 2012, 4 (7-8), 556-76. Ray, T. S., Psychedelics and the human receptorome. PLoS One 2010, 5 (2), e9019].

The next data set concerns the target Muscarinic M4 (h) (Homo sapiens (Human), UniProt P08173). In words: Off-target screen, radioligand displacement at 10 μM. It is filed as binding. The conditions noted are these: antagonist radioligand.
In the next data set the test system is PCP (rat cortex). The description is as above. It is filed as binding.
Data set [3] has as its system Calcium SKCa channel (rat cortex). The description is as above. The data set is classed as binding.
The target of the next data set is 5-HT1A receptors (Homo sapiens (Human), UniProt P08908). As to the kind of experiment: 5-HT1A receptor function. The data set is classed as cell-based. The method, then:
I-1 was also a potent 5-HT2 agonist, but at 10 μM, it inhibited >80% radioligand binding to nine other targets (see Table 6). […] I-1 inhibited <90% of radioligand binding to the other seven off-targets.

A short description of data set [4]: In vitro liver microsome stability (HLM). The data set is classed as in vitro ADME. Conditions: human, human liver microsomes, 0.5 mg/mL microsomes, NADPH, read-out: HLM, t1/2. As to the method: In vitro stability was determined in Human (HLM), Rat (RLM), Mouse (MsLM), and dog (DLM) Liver Microsomes. All liver microsomes were purchased from a commercial supplier (e.g. XenoTech). The reaction mixture, minus NADPH, was prepared as described below. The test compound was added into the reaction mixture at a final concentration of 1 μM or co-dosed with their deuterated analog(s) at 1 μM each. The control compound, testosterone, was run simultaneously with the test compound in a separate reaction. The reaction mixture (without cofactor) was equilibrated in a shaking water bath at 37° C. for 5 minutes. The reaction was initiated by the addition of the cofactor, and the mixture was incubated in a shaking water bath at 37° C. Aliquots (150 μL) were withdrawn at 0, 5, 10, 20, 30, 60, and 120 minutes. Test compound and testosterone samples were immediately combined with 150 μL of ice-cold acetonitrile (ACN) containing 0.1% formic acid and internal standard to terminate the reaction. The samples were then mixed and centrifuged to precipitate proteins. All samples were assayed by LC-MS/MS using electrospray ionization. […] Half-lives were calculated using GraphPad software, fitting to a single-phase exponential decay equation.
(In general: Liver microsomes are vesicles of endoplasmic reticulum, rich in cytochrome P450 enzymes.)

For a further data set, the target named is human alpha2C receptor (Homo sapiens (Human), UniProt P18825). In words: alpha2C receptor binding ([3H]rauwolscine). As to the method: At 10 μM, I-1 inhibited 97% of radioligand bound to rat alpha2 receptors.
Sequence of human alpha2C receptor (P18825 whole entry): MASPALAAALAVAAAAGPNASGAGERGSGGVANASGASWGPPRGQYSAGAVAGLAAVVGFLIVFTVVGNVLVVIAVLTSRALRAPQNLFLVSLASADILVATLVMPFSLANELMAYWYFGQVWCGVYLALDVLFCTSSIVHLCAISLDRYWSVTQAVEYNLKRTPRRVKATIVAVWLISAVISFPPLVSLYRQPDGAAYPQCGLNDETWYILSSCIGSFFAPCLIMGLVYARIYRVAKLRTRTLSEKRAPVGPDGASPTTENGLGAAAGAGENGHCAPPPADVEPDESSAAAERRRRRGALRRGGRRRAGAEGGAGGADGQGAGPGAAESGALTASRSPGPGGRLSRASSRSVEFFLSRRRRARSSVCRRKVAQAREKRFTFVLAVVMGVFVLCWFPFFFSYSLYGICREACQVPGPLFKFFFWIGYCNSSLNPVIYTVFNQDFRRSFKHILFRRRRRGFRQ

Sequence of human 5-HT2B receptor (P41595 whole entry, looked up): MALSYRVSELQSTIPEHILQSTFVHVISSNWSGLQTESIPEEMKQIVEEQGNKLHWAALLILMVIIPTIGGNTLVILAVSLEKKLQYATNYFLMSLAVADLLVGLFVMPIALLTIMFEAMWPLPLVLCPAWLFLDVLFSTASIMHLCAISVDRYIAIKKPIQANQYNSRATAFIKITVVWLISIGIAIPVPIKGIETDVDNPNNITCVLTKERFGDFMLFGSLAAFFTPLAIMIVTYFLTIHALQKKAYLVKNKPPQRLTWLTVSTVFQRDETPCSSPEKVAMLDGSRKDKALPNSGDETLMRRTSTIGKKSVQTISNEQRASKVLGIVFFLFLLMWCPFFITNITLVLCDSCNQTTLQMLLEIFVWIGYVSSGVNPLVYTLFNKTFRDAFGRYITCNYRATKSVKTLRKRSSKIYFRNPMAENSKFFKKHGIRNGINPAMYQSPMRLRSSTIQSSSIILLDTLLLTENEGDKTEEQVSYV
Sequence of 5-HT2C receptor (P28335 whole entry, looked up): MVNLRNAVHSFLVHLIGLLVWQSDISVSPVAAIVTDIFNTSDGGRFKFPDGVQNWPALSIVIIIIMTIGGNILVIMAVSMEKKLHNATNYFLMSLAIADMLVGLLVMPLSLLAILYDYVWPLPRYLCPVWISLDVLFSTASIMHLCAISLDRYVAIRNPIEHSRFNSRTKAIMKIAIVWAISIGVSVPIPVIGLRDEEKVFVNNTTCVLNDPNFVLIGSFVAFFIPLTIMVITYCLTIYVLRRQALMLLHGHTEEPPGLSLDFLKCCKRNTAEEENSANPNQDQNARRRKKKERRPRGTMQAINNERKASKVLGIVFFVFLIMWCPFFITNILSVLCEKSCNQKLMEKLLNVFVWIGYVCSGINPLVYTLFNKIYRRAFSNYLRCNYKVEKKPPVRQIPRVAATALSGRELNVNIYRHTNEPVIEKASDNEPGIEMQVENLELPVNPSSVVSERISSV
Sequence of Muscarinic M4 (h) (P08173 whole entry, looked up): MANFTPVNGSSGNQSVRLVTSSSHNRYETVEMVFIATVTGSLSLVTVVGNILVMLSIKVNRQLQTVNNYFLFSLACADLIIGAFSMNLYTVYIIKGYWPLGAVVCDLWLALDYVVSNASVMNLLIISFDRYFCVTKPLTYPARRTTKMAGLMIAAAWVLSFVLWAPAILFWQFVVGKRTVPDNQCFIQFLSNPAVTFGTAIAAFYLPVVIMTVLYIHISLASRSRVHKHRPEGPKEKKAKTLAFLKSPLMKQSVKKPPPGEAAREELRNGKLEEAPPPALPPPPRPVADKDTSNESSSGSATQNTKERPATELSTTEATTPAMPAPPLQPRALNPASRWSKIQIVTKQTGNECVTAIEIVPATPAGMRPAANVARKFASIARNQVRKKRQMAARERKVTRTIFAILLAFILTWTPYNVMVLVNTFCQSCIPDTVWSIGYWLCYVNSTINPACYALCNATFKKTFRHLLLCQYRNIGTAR
Sequence of Galanin GAL1 (h) (P47211 whole entry, looked up): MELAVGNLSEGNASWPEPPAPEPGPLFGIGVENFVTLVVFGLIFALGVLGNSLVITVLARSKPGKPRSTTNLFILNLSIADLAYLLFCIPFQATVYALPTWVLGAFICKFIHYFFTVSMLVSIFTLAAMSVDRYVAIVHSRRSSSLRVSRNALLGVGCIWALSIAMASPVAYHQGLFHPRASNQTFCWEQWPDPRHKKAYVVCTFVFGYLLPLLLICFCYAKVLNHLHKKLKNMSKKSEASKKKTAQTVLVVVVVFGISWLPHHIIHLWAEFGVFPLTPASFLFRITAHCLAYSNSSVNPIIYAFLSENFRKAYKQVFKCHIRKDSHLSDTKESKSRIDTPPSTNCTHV
Sequence of Histamine H1 (h) (P35367 whole entry, looked up): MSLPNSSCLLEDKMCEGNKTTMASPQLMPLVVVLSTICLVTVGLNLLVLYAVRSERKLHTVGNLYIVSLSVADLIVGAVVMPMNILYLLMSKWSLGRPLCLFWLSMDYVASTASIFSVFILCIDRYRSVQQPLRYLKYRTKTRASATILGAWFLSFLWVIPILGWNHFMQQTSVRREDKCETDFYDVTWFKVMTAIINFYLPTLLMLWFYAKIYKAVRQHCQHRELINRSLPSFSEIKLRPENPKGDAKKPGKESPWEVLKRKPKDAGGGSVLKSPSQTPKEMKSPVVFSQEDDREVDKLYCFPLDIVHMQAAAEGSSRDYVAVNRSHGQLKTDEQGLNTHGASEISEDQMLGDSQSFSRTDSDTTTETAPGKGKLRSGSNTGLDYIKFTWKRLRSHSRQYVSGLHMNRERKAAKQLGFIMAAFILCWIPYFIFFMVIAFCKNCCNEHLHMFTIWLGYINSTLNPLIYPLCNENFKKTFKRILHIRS

With `COc1cc(CC(C)N)c(OC)cc1I` (racemic) [DOI, (±)-2,5-dimethoxy-4-iodoamphetamine, reference compound], the “binding at 10 μM” value is “NB (inhibited less than 50% of radioligand bound to them, and therefore it can be concluded they do not bind (“no binding,” NB))” in data set [1]; “NB (inhibited less than 50% of radioligand bound to them, and therefore it can be concluded they do not bind (“no binding,” NB))” in [2]; “NB (inhibited less than 50% of radioligand bound to them, and therefore it can be concluded they do not bind (“no binding,” NB))” with PCP (rat cortex); “NB (inhibited less than 50% of radioligand bound to them, and therefore it can be concluded they do not bind (“no binding,” NB))” in data set [3]. Also, the inhibition at 10 µM on Histamine H1 (h) (antagonist radioligand, read-out: inhibition at 10 μM) was 64.6%; on Muscarinic M1 (h), 71.8%; at Galanin GAL1 (h), less than 50%; at Muscarinic M4 (h) it was 75.7%. For the same molecule, at human 5-HT2B receptor, the concentration giving a half-maximal response (EC50) worked out at 16 nM. Also, the results for the Emax on human 5-HT2B receptor and on 5-HT2A receptor (IP1 assay) were approximately 98% and approximately 86%, respectively. Besides, the affinity at 5-HT2C receptor corresponds to a Ki of 0.48 nM.
As to `COc1cc(SC(F)(F)F)c(OC)cc1CCN` [Compound I-1, 2-(2,5-dimethoxy-4-((trifluoromethyl)thio)phenyl)ethan-1-amine], the “binding at 10 μM” value is “NB (inhibited less than 50% of radioligand bound to them, and therefore it can be concluded they do not bind (“no binding,” NB))” in [1]; “NB (inhibited less than 50% of radioligand bound to them, and therefore it can be concluded they do not bind (“no binding,” NB))” in data set [2]; “NB (inhibited less than 50% of radioligand bound to them, and therefore it can be concluded they do not bind (“no binding,” NB))” with PCP (rat cortex); “NB (inhibited less than 50% of radioligand bound to them, and therefore it can be concluded they do not bind (“no binding,” NB))” in data set [3]. Besides, the inhibition at 10 µM was less than 50% at Histamine H1 (h) (read-out: binding at 10 μM); more than 80% on Muscarinic M1 (h); less than 50% on Galanin GAL1 (h); more than 80% at 5-HT2C receptor; more than 80% on Muscarinic M4 (h). Also, the concentration giving a half-maximal response (EC50) on human 5-HT2B receptor amounted to 88 nM; at 5-HT1A receptors, 88 nM; on 5-HT2A receptor, 4.1 nM. Moreover, the figures for the Emax on human 5-HT2B receptor and at 5-HT2A receptor (IP1 assay) were approximately 84% and approximately 86%, respectively. The “5-HT2AR agonist activity (in words)” value at 5-HT2A receptor was “pronounced agonists”. Moreover, on 5-HT2A receptor (EC50, IP1), the “activation selectivity for 5-HT2A over 5-HT2B” value is approximately 21 fold. Besides, the “2A/2B EC50 Selectivity” value on 5-HT2A receptor (IP1 assay) came to 21.5. For the same molecule, the “binding selectivity for 5-HT2C over 5-HT2B” value at 5-HT2C receptor (Ki, [125I]DOI) is given as approximately 12 fold. The inhibitory constant (Ki) was 0.55 nM on 5-HT2C receptor (radioligand [125I](±)DOI, read-out: 5-HT2C, Ki) and 108 nM on human alpha2C receptor. The half-life at 1 μM in data set [4] is more than 2 h.
